Experimental data reported in patent US20210189342A1, “COMPOSITIONS AND METHODS FOR MODULATING MONOCYTE AND MACROPHAGE INFLAMMATORY PHENOTYPES AND IMMUNOTHERAPY USES THEREOF” (Verseau Therapeutics, Inc., priority 2018, published 2021).

These substances were tested on AIF1 (assay: siRNA dose response, AIF1 mRNA knockdown, bDNA Assay). Conditions: THP-1, 24 hr.
Type: cell-based, human
Experimental: (§1) Dose response curves for siRNAs were generated in vitro using a variety of cell lines according to Table 4.
(§2) Briefly, cells were seeded in 96-well plates and reverse transfected with siRNA, Lipofectamine® 2000 (0.5 uL/well; ThermoFisher), and, in some cases, a reporter plasmid (50 ng/well). The reporter plasmid (psiCHECK™-2, Promega) encoded both firefly luciferase and the gene of interest fused to renilla luciferase; silencing of the gene of interest results in proportional silencing of renilla luciferase but leaves firefly luciferase unaffected as an internal control.
(§3) After 24 hr incubation at 37° C., mRNA knockdown was measured using an endpoint assay. For targets without a reporter plasmid, a branched DNA (bDNA) assay was performed according to the manufacturer's instructions (QuantiGene® Singleplex Gene Expression Assay, ThermoFisher) to measure both the target gene and GAPDH (housekeeping gene) mRNA. Data are plotted as siRNA concentration (nM) vs. remaining mRNA (ratio of target gene to GAPDH, normalized to mock siRNA-transfected cells). For targets with a reporter plasmid, a Dual-Glo® Luciferase Assay was performed according to the manufacturer's instructions (Promega) to measure firefly and renilla luciferase expression. Data are plotted as siRNA concentration (nM) vs. remaining mRNA (ratio of renilla to firefly luminescence, normalized to mock siRNA-transfected cells).
(§4) For all dose response curves, a 4-parameter logistic model was applied to determine the IC50 of each siRNA sequence (Table 5 and FIG. 2). Data shown in Table 5 and FIG. 2 represent the mean of quadruplicates, +/−standard deviation.

Substance | IC50
XD-09661: siRNA targeting AIF1 (sense 5'-uaAuGGAAAuGGcgAuAuudTsdT-3'; antisense 5'-AAuAUCGCcAUUUCcAUuAdTsdT-3'; as printed in the source, key not given here) | 0.045 nM
XD-09662: siRNA targeting AIF1 (sense 5'-uaucAuGucccuGaAAcGAdTsdT-3'; antisense 5'-UCGUUUcAGGGAcAUGAuAdTsdT-3'; as printed in the source, key not given here) | 0.12 nM
XD-09663: siRNA targeting AIF1 (sense 5'-gaAAcGAAuGcuGgAGAAAdTsdT-3'; antisense 5'-UUUCUCcAGcAUUCGUUUCdTsdT-3'; as printed in the source, key not given here) | 0.263 nM
XD-09664: siRNA targeting AIF1 (sense 5'-agAcucAccuAGAgcuAAAdTsdT-3'; antisense 5'-UUuAGCUCuAGGUGAGUCUdTsdT-3'; as printed in the source, key not given here) | 0.433 nM
XD-09665: siRNA targeting AIF1 (sense 5'-cucAccuAGAGcuaAAGAAdTsdT-3'; antisense 5'-UUCUUuAGCUCuAGGUGAGdTsdT-3'; as printed in the source, key not given here) | 0.349 nM
XD-09666: siRNA targeting AIF1 (sense 5'-ucAccuAGAGcuAaAGAAAdTsdT-3'; antisense 5'-UUUCUUuAGCUCuAGGUGAdTsdT-3'; as printed in the source, key not given here) | 0.105 nM
XD-09667: siRNA targeting AIF1 (sense 5'-accuAGAGcuAAAgAAAuudTsdT-3'; antisense 5'-AAUUUCUUuAGCUCuAGGUdTsdT-3'; as printed in the source, key not given here) | 0.042 nM
XD-09668: siRNA targeting AIF1 (sense 5'-ccuAGAGcuAAAGaAAuuAdTsdT-3'; antisense 5'-uAAUUUCUUuAGCUCuAGGdTsdT-3'; as printed in the source, key not given here) | 0.267 nM
XD-09669: siRNA targeting AIF1 (sense 5'-ccGGGGAGAcGuucAGcuAdTsdT-3'; antisense 5'-uAGCUGAACGUCUCCCCGGdTsdT-3'; as printed in the source, key not given here) | 1.23 nM

These substances were tested on CD74 (assay: siRNA dose response, CD74 mRNA knockdown, bDNA Assay). Conditions: THP-1, 24 hr.
Type: cell-based, human
Experimental: as §1, §2, §3, §4

Substance | IC50
XD-09237: siRNA targeting CD74 (sense 5'-ccAuAAuccuuucuGccGAdTsdT-3'; antisense 5'-UCGGcAGAAAGGAUuAUGGdTsdT-3'; as printed in the source, key not given here) | 1.84 nM
XD-09239: siRNA targeting CD74 (sense 5'-ggccAuGGuucAcauuAGAdTsdT-3'; antisense 5'-UCuAAUGUGAACcAUGGCCdTsdT-3'; as printed in the source, key not given here) | 0.07 nM

What follows are substances tested on VSIG4 (assay: siRNA dose response, VSIG4 mRNA knockdown, Dual-Glo Luciferase Assay). Conditions: Hepa1-6 + reporter plasmid, 24 hr.
Type: cell-based, human
Experimental: as §1, §2, §3, §4

Substance | IC50
XD-09170: siRNA targeting VSIG4 (sense 5'-aaGGcuAcAcccAaGucuudTsdT-3'; antisense 5'-AAGACUUGGGUGuAGCCUUdTsdT-3'; RNA with 2'-O-methyl and phosphorothioate modifications, case key not given here, as printed in the source, key not given here) | 0.024 nM
XD-09171: siRNA targeting VSIG4 (sense 5'-cuuucuAcGuGAcucuucudTsdT-3'; antisense 5'-AGAAGAGUcACGuAGAAAGdTsdT-3'; RNA with 2'-O-methyl and phosphorothioate modifications, case key not given here, as printed in the source, key not given here) | 0.023 nM
XD-09172: siRNA targeting VSIG4 (sense 5'-gcAAccAAGucGugAGAGAdTsdT-3'; antisense 5'-UCUCUcACGACUUGGUUGCdTsdT-3'; RNA with 2'-O-methyl and phosphorothioate modifications, case key not given here, as printed in the source, key not given here) | < 0.005 nM
XD-09173: siRNA targeting VSIG4 (sense 5'-cguGAGAGAuAAGauuAcudTsdT-3'; antisense 5'-AGuAAUCUuAUCUCUcACGdTsdT-3'; RNA with 2'-O-methyl and phosphorothioate modifications, case key not given here, as printed in the source, key not given here) | < 0.005 nM
XD-09174: siRNA targeting VSIG4 (sense 5'-aacAAGAGcAuGucuAcGAdTsdT-3'; antisense 5'-UCGuAGAcAUGCUCUUGUUdTsdT-3'; RNA with 2'-O-methyl and phosphorothioate modifications, case key not given here, as printed in the source, key not given here) | 0.036 nM
XD-09176: siRNA targeting VSIG4 (sense 5'-cacuAGGAcuuGGucAucAdTsdT-3'; antisense 5'-AGAUGACcAAGUCCuAGUGdTsdT-3'; RNA with 2'-O-methyl and phosphorothioate modifications, case key not given here, as printed in the source, key not given here) | 0.031 nM
XD-09177: siRNA targeting VSIG4 (sense 5'-acuAGGAcuuGGucAucAudTsdT-3'; antisense 5'-AUGAUGACcAAGUCCuAGUdTsdT-3'; RNA with 2'-O-methyl and phosphorothioate modifications, case key not given here, as printed in the source, key not given here) | 0.007 nM
XD-09178: siRNA targeting VSIG4 (sense 5'-gucAucAuGccuAcAGAcAdTsdT-3'; antisense 5'-UGUCUGuAGGcAUGAUGACdTsdT-3'; RNA with 2'-O-methyl and phosphorothioate modifications, case key not given here, as printed in the source, key not given here) | 0.06 nM
XD-09179: siRNA targeting VSIG4 (sense 5'-ggccAGAcAGcuuuuAAuudTsdT-3'; antisense 5'-AAUuAAAAGCUGUCUGGCCdTsdT-3'; RNA with 2'-O-methyl and phosphorothioate modifications, case key not given here, as printed in the source, key not given here) | 0.006 nM

What follows are substances tested on CD37 (assay: siRNA dose response, CD37 mRNA knockdown, bDNA Assay). Conditions: THP-1, 24 hr.
Type: cell-based, human
Experimental: as §1, §2, §3, §4

Substance | IC50
XD-09770: siRNA targeting CD37 (sense 5'-gcuuGcGGGAcGucGuAGAdTsdT-3'; antisense 5'-UCuACGACGUCCCGcAAGCdTsdT-3'; RNA with 2'-O-methyl and phosphorothioate modifications, case key not given here, as printed in the source, key not given here) | 0.553 nM
XD-09771: siRNA targeting CD37 (sense 5'-gacGucGuAGAGAaAAccAdTsdT-3'; antisense 5'-UGGUUUUCUCuACGACGUCdTsdT-3'; RNA with 2'-O-methyl and phosphorothioate modifications, case key not given here, as printed in the source, key not given here) | 0.388 nM
XD-09773: siRNA targeting CD37 (sense 5'-cgAccAAcGAcuccAcAAudTsdT-3'; antisense 5'-AUUGUGGAGUCGUUGGUCGdTsdT-3'; RNA with 2'-O-methyl and phosphorothioate modifications, case key not given here, as printed in the source, key not given here) | 0.311 nM
XD-09774: siRNA targeting CD37 (sense 5'-ccAAcGAcuccAcaAuccudTsdT-3'; antisense 5'-AGGAUUGUGGAGUCGUUGGdTsdT-3'; RNA with 2'-O-methyl and phosphorothioate modifications, case key not given here, as printed in the source, key not given here) | 0.129 nM
XD-09775: siRNA targeting CD37 (sense 5'-ccAcAAuccuAGAuAAGGudTsdT-3'; antisense 5'-ACCUuAUCuAGGAUUGUGGdTsdT-3'; RNA with 2'-O-methyl and phosphorothioate modifications, case key not given here, as printed in the source, key not given here) | 1.6 nM
XD-09776: siRNA targeting CD37 (sense 5'-ggcuGcAcAAcAAccuuAudTsdT-3'; antisense 5'-AuAAGGUUGUUGUGcAGCCdTsdT-3'; RNA with 2'-O-methyl and phosphorothioate modifications, case key not given here, as printed in the source, key not given here) | 1.32 nM
XD-09777: siRNA targeting CD37 (sense 5'-guucAuGAcGcucucGAuAdTsdT-3'; antisense 5'-uAUCGAGAGCGUcAUGAACdTsdT-3'; RNA with 2'-O-methyl and phosphorothioate modifications, case key not given here, as printed in the source, key not given here) | 0.414 nM
